In paper PMC8532448, “Drug target inference by mining transcriptional data using a novel graph convolutional network framework” (Protein & Cell, 2021):
pKd: −log10 of the molar value.

Biological target: Cyclophilin A (CYPA, PPIA) (Homo sapiens, UniProt P62937)
Assay: SPR with purified CYPA; also protein thermal shift (destabilization) and chymotrypsin-coupled PPIase inhibition
Format: binding

Chain of Cyclophilin A (CYPA, PPIA) (P62937 whole entry): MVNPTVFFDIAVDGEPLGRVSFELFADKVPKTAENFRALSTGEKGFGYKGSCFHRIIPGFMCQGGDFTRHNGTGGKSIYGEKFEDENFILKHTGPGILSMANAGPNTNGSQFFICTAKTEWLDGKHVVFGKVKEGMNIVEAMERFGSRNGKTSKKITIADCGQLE

pKd: 6.03
Compound: Cc1c(O)cccc1C(=O)N[C@@H](CSc1ccccc1)[C@H](O)CN1C[C@H]2CCCC[C@H]2C[C@H]1C(=O)NC(C)(C)C [NFV, Nelfinavir]
